Measurements as given in ChEMBL document CHEMBL1777753, “Discovery of indeno[1,2-c]quinoline derivatives as inhibitors of osteoclastogenesis induced by receptor activator of NF-κB ligand (RANKL)” (J Med Chem, 2011).
The source made the active and inactive calls. No cut-off for these calls is given here.

Key:
RAW264.7 [1] = assay: Inhibition of RANKL-induced osteoclastogenesis in mouse RAW264.7 cells assessed as decrease in TRAP-positive multi-nucleated cells after 5 days; format: functional, cell-based; conditions: RAW264.7, 120 h
RAW264.7 [2] = assay: Inhibition of RANKL-induced osteoclastogenesis in mouse RAW264.7 cells assessed as decrease in TRAP-positive multi-nucleated cells at 10 uM after 5 days; format: functional
[3] = Cytotoxicity against mouse RAW264.7 cells assessed as cell survival rate at 10 uM by MTT assay; format: cell-based; conditions: read-out: Survival
RAW264.7 [4] = assay: Inhibition of RANKL-induced osteoclastogenesis in mouse RAW264.7 cells; format: functional, cell-based
RAW264.7 [5] = assay: Ratio of EGCG IC50 for compound IC50 for inhibition of RANKL-induced osteoclastogenesis in mouse RAW264.7 cells; format: functional
A549 = assay: Growth inhibition against human A549 cells; format: functional
[6] = Growth inhibition against human BT-483 cells; format: functional
SAS = assay: Growth inhibition against human SAS cells; format: functional

Compound	IC50 (RAW264.7 [1])	viability at 10 µM [3]	also measured
CO/N=C1\c2cc(OC)ccc2-c2c(NOC)nc3ccccc3c21	1.58 µM	105%	inhibition (RAW264.7 [2]): Active
COc1ccc2c(c1)C(=O)c1c-2c(S)nc2ccccc12	13.8 µM	63%	
COc1ccc2c(c1)C(=O)c1c-2c(N)nc2ccccc12	> 20 µM		
C=CCOc1ccc2c(c1)C(=O)c1c-2c(OCC=C)nc2ccccc12	5.7 µM	75.1%	inhibition (RAW264.7 [2]): Active
C=CCOc1ccc2c(c1)C(=O)c1c-2c(=O)n(CC=C)c2ccccc12	> 20 µM		
O=C(O[C@@H]1Cc2c(O)cc(O)cc2O[C@@H]1c1cc(O)c(O)c(O)c1)c1cc(O)c(O)c(O)c1 [EPIGALOCATECHIN GALLATE]	29.8 µM		
CC(C)Oc1ccc2c(=O)c(-c3ccccc3)coc2c1 [IPRIFLAVONE]		102%	inhibition at 10 µM (RAW264.7 [2]; RAW264.7, 120 h): 31%
C=CCSc1nc2ccccc2c2c1-c1ccc(OC)cc1C2=O	15.6 µM	106%	
C#CCOc1ccc2c(c1)C(=O)c1c-2c(OCC#C)nc2ccccc12	9.46 µM	30.9%	
Cc1ccc(-n2c(=O)n3n(c2=O)C2C(=CC3)C(C)(C)Oc3cc(O)ccc32)cc1 (configuration not stated)			IC50 (RAW264.7 [4]): 6.97 µM
CNc1nc2ccccc2c2c1-c1ccc(OC)cc1C2=O	5.58 µM	25.9%	
CCOc1nc2ccccc2c2c1-c1ccc(OC)cc1C2=O	> 20 µM		
COc1ccc2c(c1)C(=O)c1c-2c(OC)nc2ccccc12	2 µM	100%	inhibition (RAW264.7 [2]): Active; Ratio IC50 (RAW264.7 [5]): 15
CO/N=C1\c2cc(OC)ccc2-c2c(OC)nc3ccccc3c21	7.97 µM	62.3%	
COc1ccc2c(c1)C(=O)c1c-2c(SC)nc2ccccc12	2.58 µM	86.6%	inhibition (RAW264.7 [2]): Active
COc1ccc2c(c1)C(=O)c1c-2c(O)nc2ccccc12	> 20 µM		
C#CCOc1ccc2c(c1)C(=O)c1c-2c(=O)n(CC#C)c2ccccc12	> 20 µM		
COc1ccc2c(c1)C(=O)c1c-2c(=O)n(C)c2ccccc12	11.5 µM	66.6%	
COc1ccc2c(c1)C(=O)c1c-2cnc2ccccc12	1.43 µM	25.3%	Ratio IC50 (RAW264.7 [5]): 20
COc1ccc2c(c1)/C(=N\OCCN1CCCC1)c1c-2c(O)nc2ccccc12			GI50 (A549): 0.89 µM; GI50 [6]: 0.79 µM; GI50 (SAS): 0.84 µM
CO/N=C1\c2cc(OC)ccc2-c2cnc3ccccc3c21	4.79 µM	55.4%	
COc1ccc2c(c1)/C(=N\O)c1c-2c(OC)nc2ccccc12	8.44 µM	46.9%	
COc1ccc2c(c1)/C(=N\O)c1c-2cnc2ccccc12	> 20 µM		
COc1ccc2c(c1)/C(=N\O)c1c-2c(O)nc2ccccc12	9.11 µM	85.2%	
C=CCn1c(=O)c2c(c3ccccc31)C(=O)c1cc(OC)ccc1-2	> 20 µM		
O=C1c2cc(O)ccc2-c2c(O)nc3ccccc3c21	15.3 µM	16.8%	
C=CCOc1nc2ccccc2c2c1-c1ccc(OC)cc1C2=O	15.4 µM	105%	
